The source of these data is ChEMBL document CHEMBL3826912 (ACS Med Chem Lett, 2016).

In general, AUC(0-t) refers to the area under the concentration-time curve up to a stated or last time point. One may read the CC50 as the concentration giving 50% cytotoxicity. What is called pKa is the negative logarithm of the acid dissociation constant. Usually half-life stands for the time needed for the level to fall by half in the phase considered. As usually defined, the bioavailability is dose-corrected exposure relative to a reference, in per cent. By AUC is commonly meant concentration integrated over time.

One data set in a line: in vivo. Particulars: rat, po, 5 mg/kg.
Another data set in a line: in vitro. As to conditions: human, MT2 cells.
Data set [1] in a line: Dissociation constant, pKa of the compound. The format is physicochemical.
Data set [2] can be described thus: Half life in human liver microsomes at 0.5 uM in presence of NADPH by LC-MS/MS analysis. The format is ADME. (In general: Liver microsomes are vesicles of endoplasmic reticulum, rich in cytochrome P450 enzymes.)
Data set [3] is described as follows: Half life in rat liver microsomes at 0.5 uM in presence of NADPH by LC-MS/MS analysis. The format is ADME.
Data set [4] can be described thus: Half life in dog liver microsomes at 0.5 uM in presence of NADPH by LC-MS/MS analysis. In kind it is ADME, Canis lupus familiaris.
Data set [5] is described as follows: Half life in monkey liver microsomes at 0.5 uM in presence of NADPH by LC-MS/MS analysis. In kind it is ADME, Macaca mulatta. As to conditions: rhesus monkey.
Data set [6] can be described thus: Oral bioavailability in mouse at 5 mg/kg by LC-MS/MS analysis. In kind it is ADME, organism-based. Particulars: in vivo.
Data set [7] in a line: Oral bioavailability in rat at 5 mg/kg by LC-MS/MS analysis. The format is ADME, organism-based. Particulars: in vivo.
Data set [8] can be described thus: Oral bioavailability in dog at 1.85 mg/kg by LC-MS/MS analysis. In kind it is ADME, organism-based, Canis lupus familiaris. Particulars: in vivo.
Data set [9] can be described thus: Oral bioavailability in Cynomolgus monkey at 2 mg/kg by LC-MS/MS analysis. In kind it is ADME, organism-based, Macaca fascicularis. As to conditions: in vivo.
The nature of data set [10]: AUCtotal in mouse at 5 mg/kg administered via oral gavage by LC-MS/MS analysis. On the set-up: dose 5 mg/kg, route oral, time AUCmax. As to conditions: in vivo. The format is ADME, organism-based.
Data set [11] is described as follows: AUCtotal in rat at 5 mg/kg administered via oral gavage by LC-MS/MS analysis. The format is ADME, organism-based. On the set-up: dose 5 mg/kg, time AUCmax, route oral. Particulars: in vivo.
Data set [12] is described as follows: AUCtotal in dog at 1.85 mg/kg administered via oral gavage by LC-MS/MS analysis. In kind it is ADME, organism-based, Canis lupus familiaris. Details: dose 1.85 mg/kg, time AUCmax, route oral. Particulars: in vivo.
Data set [13] is described as follows: AUCtotal in Cynomolgus monkey at 2 mg/kg administered via oral gavage by LC-MS/MS analysis. The format is ADME, organism-based, Macaca fascicularis. Details: dose 2 mg/kg, route oral, time AUCmax. Particulars: in vivo.
Data set [14] in a line: Drug level in mouse at 5 mg/kg administered via oral gavage after 24 hrs by LC-MS/MS analysis. As to conditions: in vivo, read-out: Drug uptake. In kind it is ADME, organism-based.
Data set [15] is described as follows: Drug level in rat at 5 mg/kg administered via oral gavage after 24 hrs by LC-MS/MS analysis. The format is ADME, organism-based. Particulars: in vivo, read-out: Drug uptake.
Data set [16] in a line: Drug level in dog at 1.85 mg/kg administered via oral gavage after 24 hrs by LC-MS/MS analysis. In kind it is ADME, organism-based, Canis lupus familiaris. As to conditions: in vivo, read-out: Drug uptake.
Data set [17] is described as follows: Drug level in Cynomolgus monkey at 2 mg/kg administered via oral gavage after 24 hrs by LC-MS/MS analysis. As to conditions: in vivo, read-out: Drug uptake. The format is ADME, organism-based, Macaca fascicularis.
Data set [18] is described as follows: Half life in iv dosed mouse by LC-MS/MS analysis. The format is ADME, organism-based. As to conditions: in vivo.
Data set [19] is described as follows: Half life in iv dosed rat by LC-MS/MS analysis. As to conditions: in vivo. In kind it is ADME, organism-based.
The nature of data set [20]: Half life in iv dosed dog by LC-MS/MS analysis. As to conditions: in vivo. In kind it is ADME, organism-based, Canis lupus familiaris.
Data set [21] can be described thus: Half life in iv dosed Cynomolgus monkey by LC-MS/MS analysis. The format is ADME, organism-based, Macaca fascicularis. Particulars: in vivo.
Data set [22] can be described thus: Protein binding in human serum by ultracentrifugation method. The format is ADME. Particulars: read-out: PB.
The next data set concerns Salmonella typhimurium. The experiment in a line: Mutagenicity in Salmonella typhimurium. In kind it is toxicity, organism-based. Particulars: salmonella enterica subsp. enterica serovar typhimurium.
Data set [23] in a line: Inhibition of CYP450 in human microsomes. In kind it is ADME.

Bounds are passed on as bounds.

Description for in vitro: Cytotoxicity against human MT2 cells
Description for in vivo: AUC (0 to 24 hrs) in rat at 5 mg/kg, po

As for `C=C(C)[C@@H]1CC[C@]2(CNCCO)CC[C@]3(C)[C@H](CC[C@@H]4[C@@]5(C)CC=C(c6ccc(C(=O)O)cc6)C(C)(C)[C@@H]5CC[C@]43C)[C@@H]12`, the AUC(0-t) at 24 h in the data set “in vivo” stood at 4.98 µM·h. For the same compound, the CC50 in the data set “in vitro” was found to be 8.48 nM.

In “in vitro”, `C=C(C)[C@@H]1CC[C@]2(CNC(C)C)CC[C@]3(C)[C@H](CC[C@@H]4[C@@]5(C)CC=C(c6ccc(C(=O)O)cc6)C(C)(C)[C@@H]5CC[C@]43C)[C@@H]12` came in with a CC50 of 2.36 nM.

In the case of `C=C(C)[C@@H]1CC[C@]2(CNCCCN3CCCC3=O)CC[C@]3(C)[C@H](CC[C@@H]4[C@@]5(C)CC=C(c6ccc(C(=O)O)cc6)C(C)(C)[C@@H]5CC[C@]43C)[C@@H]12`, in the data set “in vivo”, the area under the curve AUC(0-t) at 24 h amounted to 1.04 µM·h. The same compound came in with a CC50 in “in vitro” of 5.8 nM.

`C=C(C)[C@@H]1CC[C@]2(CNCCN(C)C)CC[C@]3(C)[C@H](CC[C@@H]4[C@@]5(C)CC=C(c6ccc(C(=O)O)cc6)C(C)(C)[C@@H]5CC[C@]43C)[C@@H]12` showed an AUC(0-t) at 24 h in the data set “in vivo” of 0.153 µM·h. In “in vitro”, the CC50 was 1.24 nM.

Consider `C=C(C)[C@@H]1CC[C@]2(CNCCCN3CCS(=O)(=O)CC3)CC[C@]3(C)[C@H](CC[C@@H]4[C@@]5(C)CC=C(c6ccc(C(=O)O)cc6)C(C)(C)[C@@H]5CC[C@]43C)[C@@H]12`, for which the pKa in [1] was 4.5. In addition, in the data set “in vivo”, the AUC(0-t) at 24 h was found to be 1.71 µM·h. The compound further showed a CC50 in the data set “in vitro” of 3.5 nM.

As for `C=C(C)[C@@H]1CC[C@]2(NCCN3CCS(=O)(=O)CC3)CC[C@]3(C)[C@H](CC[C@@H]4[C@@]5(C)CC=C(c6ccc(C(=O)O)cc6)C(C)(C)[C@@H]5CC[C@]43C)[C@@H]12` [BMS-955176], the half-life at 0.5 µM was > 2 h in [2], > 2 h in data set [3], > 2 h in [4] and 0.2 h in [5]. Besides, the bioavailability is 27% in [6], 26% in data set [7], 8.5% in data set [8] and 3.9% in data set [9]. Moreover, the AUC in data set [10] turned out to be 28.9 µM·h; in data set [11], 14.2 µM·h; in [12] it was 29.4 µM·h; in data set [13] it was 0.995 µM·h. The concentration at 24 h in [14] worked out at 256 nM; in [15] it was 128 nM; in data set [16], 559 nM; in data set [17], 17.4 nM. The half-life was 8.9 h in data set [18], 6.6 h in data set [19], 31.7 h in [20] and 8.6 h in data set [21]. In addition, the fraction unbound in data set [22] is < 0.16. In addition, in the data set on Salmonella typhimurium, the Activity entry was “Non-toxic”. For the same compound, the “inhibition (INH)” value in [23] is “Not Active”. The same compound gave an area under the curve AUC(0-t) at 24 h in the data set “in vivo” of 4.13 µM·h. Also, half-maximal cytotoxicity in “in vitro” (CC50) was put at 9.2 nM.

`C=C(C)[C@@H]1CC[C@]2(C(=O)NCCN(C)C)CC[C@]3(C)[C@H](CC[C@@H]4[C@@]5(C)CC=C(c6ccc(C(=O)O)cc6)C(C)(C)[C@@H]5CC[C@]43C)[C@@H]12` gave an AUC(0-t) at 24 h in “in vivo” of 1.62 µM·h. Besides, in “in vitro”, the CC50 was 2.61 nM.

In “in vivo”, `C=C(C)[C@@H]1CC[C@]2(C(=O)O)CC[C@]3(C)[C@H](CC[C@@H]4[C@@]5(C)CC=C(c6ccc(C(=O)O)cc6)C(C)(C)[C@@H]5CC[C@]43C)[C@@H]12` yielded an AUC(0-t) at 24 h of 5.72 µM·h. In “in vitro”, this compound had a CC50 of 27.2 nM.
